Results from patent US9376425B2, “Heterocyclic compounds as MDM2 inhibitors for the treatment of cancer” (AMGEN INC., priority 2011, dated 2016).

Each compound was assayed against T1, human MDM2 (GST-hMDM2 1-188), interaction with biotinylated-p53 (1-83) (Homo sapiens, UniProt Q00987) (assay: improved HTRF assay (HTRF2 assay), inhibition of HDM2-p53 interaction). Conditions: 0.2 nM GST-hMDM2, 0.5 nM biotinylated-p53, 100 mM KF.
T1 construct: Amino acid residues 1-188 of human MDM2 were expressed; made in house; host or cells: Escherichia coli
T1 sequence (Q00987 1-188): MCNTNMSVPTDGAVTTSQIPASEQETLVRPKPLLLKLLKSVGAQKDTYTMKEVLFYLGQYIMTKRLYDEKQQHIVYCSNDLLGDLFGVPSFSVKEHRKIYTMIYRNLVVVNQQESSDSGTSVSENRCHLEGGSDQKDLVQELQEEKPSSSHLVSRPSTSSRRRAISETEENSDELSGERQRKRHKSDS
Format: binding
Protocol: Residues 1-83 of human p53 were expressed as an amino-terminal AviTag™-TrxA-6xHis fusion protein (biotinylated p53) in E. coli. Each protein was purified from cell paste by affinity chromatography.
Specifically, 10 uL of GST-hMDM2 was incubated with 10 ul of diluted compound (various concentrations, serially diluted) in 10% DMSO for 20 minutes at room temperature. 20 uL of biotinylated-p53 was added to the GST-hMDM2+ compound mixture, and then incubated at room temperature for 60 min. 10 uL of detection buffer consisting of SA-XLent, anti-GST cryptate antibody and KF was added to GST-hMDM2, biotinylated-p53 and compound reaction and left at room temperature to reach equilibrium for >4 hrs. The final concentration of DMSO in the reaction was 2%. Time-resolved fluorescence readings were measured on a microplate multilabel reader. Percentage of inhibition was calculated relative to nutlin-3.
CC[C@@H](CS(=O)(=O)C(C)C)N1C(=O)[C@@H](CC(=O)O)O[C@H](c2cc(Cl)cc(Cl)c2)[C@H]1c1ccc(Cl)cc1 (single isomer, unassigned) [Example 146, 2-((2R,5R,6R)-5-(4-chlorophenyl)-6-(3,5-dichlorophenyl)-4-((S)-1-(isopropylsulfonyl)butan-2-yl)-3-oxomorpholin-2-yl)acetic acid or 2-((2S,5R,6R)-5-(4-chlorophenyl)-6-(3,5-dichlorophenyl)-4-((S)-1-(isopropylsulfonyl)butan-2-yl)-3-oxomorpholin-2-yl)acetic acid] gave an IC50 of 15 nM.
Work on CC[C@@H](CS(=O)(=O)C(C)(C)C)N1C(=O)[C@@H](CC(=O)O)O[C@H](c2cc(Cl)cc(Cl)c2)[C@H]1c1ccc(Cl)cc1 (single isomer, unassigned) [Example 147, 2-((2R,5R,6R)-5-(4-chlorophenyl)-6-(3,5-dichlorophenyl)-4-((S)-1-(tert-butylsulfonyl)butan-2-yl)-3-oxomorpholin-2-yl)acetic acid or 2-((2S,5R,6R)-5-(4-chlorophenyl)-6-(3,5-dichlorophenyl)-4-((S)-1-(tert-butylsulfonyl)butan-2-yl)-3-oxomorpholin-2-yl)acetic acid] yielded an IC50 of 6 nM.
CC[C@@H](CS(=O)(=O)C(C)(C)C)N1C(=O)[C@@H](CC(=O)O)O[C@H](c2cc(Cl)cc(Cl)c2)[C@H]1c1ccc(Cl)cc1 (single isomer, unassigned) [Example 148, 2-((2R,5R,6R)-5-(4-chlorophenyl)-6-(3,5-dichlorophenyl)-4-((S)-1-(tert-butylsulfonyl)butan-2-yl)-3-oxomorpholin-2-yl)acetic acid or 2-((2S,5R,6R)-5-(4-chlorophenyl)-6-(3,5-dichlorophenyl)-4-((S)-1-(tert-butylsulfonyl)butan-2-yl)-3-oxomorpholin-2-yl)acetic acid] was tested, and the IC50 was 7 nM.
Compound CC(C)S(=O)(=O)C[C@H](C1CC1)N1C(=O)[C@@H](CC(=O)O)O[C@H](c2cccc(Cl)c2)[C@H]1c1ccc(Cl)cc1 (single isomer, unassigned) [Example 156, 2-((2R,5R,6R)-6-(3-chlorophenyl)-5-(4-chlorophenyl)-4-((S)-1-cyclopropyl-2-(isopropylsulfonyl)ethyl)-3-oxomorpholin-2-yl)acetic acid or 2-((2S,5R,6R)-6-(3-chlorophenyl)-5-(4-chlorophenyl)-4-((S)-1-cyclopropyl-2-(isopropylsulfonyl)ethyl)-3-oxomorpholin-2-yl)acetic acid] has an IC50 of 1 nM.
CC(C)S(=O)(=O)C[C@H](C1CC1)N1C(=O)[C@@H](CC(=O)O)O[C@H](c2cccc(Cl)c2)[C@H]1c1ccc(Cl)cc1 (single isomer, unassigned) [Example 157, 2-((2R,5R,6R)-6-(3-chlorophenyl)-5-(4-chlorophenyl)-4-((S)-1-cyclopropyl-2-(isopropylsulfonyl)ethyl)-3-oxomorpholin-2-yl)acetic acid or 2-((2S,5R,6R)-6-(3-chlorophenyl)-5-(4-chlorophenyl)-4-((S)-1-cyclopropyl-2-(isopropylsulfonyl)ethyl)-3-oxomorpholin-2-yl)acetic acid] showed an IC50 of 1 nM.
Work on O=C(O)C[C@H]1O[C@H](c2cccc(Cl)c2)[C@@H](c2ccc(Cl)cc2)N([C@H](CN(c2ccccc2F)S(=O)(=O)C2CC2)C2CC2)C1=O (single isomer, unassigned) [Example 158, 2-((2R,5R,6R)-6-(3-chlorophenyl)-5-(4-chlorophenyl)-4-((S)-1-cyclopropyl-2-(N-(2-fluorophenyl)cyclopropanesulfonamido)ethyl)-3-oxomorpholin-2-yl)acetic acid or 2-((2S,5R,6R)-6-(3-chlorophenyl)-5-(4-chlorophenyl)-4-((S)-1-cyclopropyl-2-(N-(2-fluorophenyl)cyclopropanesulfonamido)ethyl)-3-oxomorpholin-2-yl)acetic acid] yielded an IC50 of under 1 nM.
Compound O=C(O)C[C@H]1O[C@H](c2cccc(Cl)c2)[C@@H](c2ccc(Cl)cc2)N([C@H](CN(c2ccccc2F)S(=O)(=O)C2CC2)C2CC2)C1=O (single isomer, unassigned) [Example 159, 2-((2R,5R,6R)-6-(3-chlorophenyl)-5-(4-chlorophenyl)-4-((S)-1-cyclopropyl-2-(N-(2-fluorophenyl)cyclopropanesulfonamido)ethyl)-3-oxomorpholin-2-yl)acetic acid or 2-((2S,5R,6R)-6-(3-chlorophenyl)-5-(4-chlorophenyl)-4-((S)-1-cyclopropyl-2-(N-(2-fluorophenyl)cyclopropanesulfonamido)ethyl)-3-oxomorpholin-2-yl)acetic acid] has an IC50 of under 1 nM.
With CC[C@@H](CS(=O)(=O)C(C)(C)C)N1C(=O)[C@@H](CC(=O)O)O[C@H](c2cccc(Cl)c2)[C@@]1(C)c1ccc(Cl)cc1 (single isomer, unassigned) [Example 162, 2-((2R,5R,6R)-4-((S)-1-(tert-butylsulfonyl)butan-2-yl)-6-(3-chlorophenyl)-5-(4-chlorophenyl)-5-methyl-3-oxomorpholin-2-yl)acetic acid or 2-((2S,5R,6R)-4-((S)-1-(tert-butylsulfonyl)butan-2-yl)-6-(3-chlorophenyl)-5-(4-chlorophenyl)-5-methyl-3-oxomorpholin-2-yl)acetic acid] the IC50 was 6250 nM.
CC[C@@H](CS(=O)(=O)C(C)(C)C)N1C(=O)[C@@H](CC(=O)O)O[C@H](c2cccc(Cl)c2)[C@@]1(C)c1ccc(Cl)cc1 (single isomer, unassigned) [Example 163, 2-((2R,5R,6R)-4-((S)-1-(tert-butylsulfonyl)butan-2-yl)-6-(3-chlorophenyl)-5-(4-chlorophenyl)-5-methyl-3-oxomorpholin-2-yl)acetic acid or 2-((2S,5R,6R)-4-((S)-1-(tert-butylsulfonyl)butan-2-yl)-6-(3-chlorophenyl)-5-(4-chlorophenyl)-5-methyl-3-oxomorpholin-2-yl)acetic acid] gave an IC50 of 6620 nM.
In the case of CC[C@@H](CN(c1ccccc1F)S(=O)(=O)C1(C)CC1)N1C(=O)[C@@H](CC(=O)O)O[C@H](c2cccc(Cl)c2)[C@H]1c1ccc(Cl)cc1 (single isomer, unassigned) [Example 174, 2-((2R,5R,6R)-6-(3-chlorophenyl)-5-(4-chlorophenyl)-4-((S)-1-(N-(2-fluorophenyl)-1-methylcyclopropanesulfonamido)butan-2-yl)-3-oxomorpholin-2-yl)acetic acid or 2-((2S,5R,6R)-6-(3-chlorophenyl)-5-(4-chlorophenyl)-4-((S)-1-(N-(2-fluorophenyl)-1-methylcyclopropanesulfonamido)butan-2-yl)-3-oxomorpholin-2-yl)acetic acid], the IC50 is reported as under 1 nM.
CC[C@@H](CN(c1ccccc1F)S(=O)(=O)C1(C)CC1)N1C(=O)[C@@H](CC(=O)O)O[C@H](c2cccc(Cl)c2)[C@H]1c1ccc(Cl)cc1 (single isomer, unassigned) [Example 175, 2-((2R,5R,6R)-6-(3-chlorophenyl)-5-(4-chlorophenyl)-4-((S)-1-(N-(2-fluorophenyl)-1-methylcyclopropanesulfonamido)butan-2-yl)-3-oxomorpholin-2-yl)acetic acid or 2-((2S,5R,6R)-6-(3-chlorophenyl)-5-(4-chlorophenyl)-4-((S)-1-(N-(2-fluorophenyl)-1-methylcyclopropanesulfonamido)butan-2-yl)-3-oxomorpholin-2-yl)acetic acid] showed an IC50 of under 1 nM.
